These results are taken from ChEMBL document CHEMBL5728583, “Galactoside inhibitor of galectins” (2021).

The structures appear in SMILES notation.

For test [1], the target named is Galectin-1 (Homo sapiens, UniProt P09382). Nature of the test: fluorescence anisotropy assay: The affinity of Example 1-33 for galectins were determined by a fluorescence anisotropy assay where the compound was used as an inhibitor of the interaction between galectin and a fluorescein tagged saccharide probe as described Sörme, P., Kahl-Knutsson, B., Huflejt, M., Nilsson, U. J., and Leffler H. (2004) Fluorescence polarization as an analytical tool to ….
Galectin-1, sequence (P09382 whole entry): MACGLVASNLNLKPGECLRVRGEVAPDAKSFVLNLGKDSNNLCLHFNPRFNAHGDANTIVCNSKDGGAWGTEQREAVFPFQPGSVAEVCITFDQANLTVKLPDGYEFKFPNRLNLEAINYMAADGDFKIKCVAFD

Test [2] concerns the target Galectin-3 (Homo sapiens, UniProt P17931). Kind of test: fluorescence anisotropy assay: The affinity of Example 1-33 for galectins were determined by a fluorescence anisotropy assay where the compound was used as an inhibitor of the interaction between galectin and a fluorescein tagged saccharide probe as described Sörme, P., Kahl-Knutsson, B., Huflejt, M., Nilsson, U. J., and Leffler H. (2004) Fluorescence polarization as an analytical tool to evaluate galectin-ligand interactions. Anal. Biochem. 334: 36-47, (Sörme et al., 2004) and Monovalent interactions of Galectin-1 By Salomonsson, Emma; Larumbe, Amaia; Tejler, Johan; Tullberg, Erik; Rydberg, Hanna; Sundin, Anders; Khabut, Areej; Frejd, Torbjorn; Lobsanov, Yuri D.; Rini, James M.; et al, From Biochemistry (2010), 49(44), 9518-9532, (Salomonsson et al., 2010). (In general: Polarisation of emitted light reports the rotation of a fluorescent probe.)

As a reminder, the Kd is the constant that tells how readily two partners part at equilibrium.

Galectin-3, sequence (P17931 whole entry): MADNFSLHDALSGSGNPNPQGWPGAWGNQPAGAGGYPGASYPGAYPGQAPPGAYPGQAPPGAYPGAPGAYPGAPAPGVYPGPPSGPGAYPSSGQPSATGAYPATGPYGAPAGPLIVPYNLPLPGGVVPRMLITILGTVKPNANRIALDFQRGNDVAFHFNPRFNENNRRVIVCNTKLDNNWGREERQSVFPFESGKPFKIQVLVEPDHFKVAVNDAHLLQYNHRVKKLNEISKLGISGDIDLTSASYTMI

Take `OC[C@H]1O[C@H](Sc2ccc(Cl)c(Cl)c2)[C@H](O)[C@@H](n2cc(-c3nc(O)cs3)nn2)[C@H]1O`: the dissociation constant (Kd) in test [1] turned out to be 650 nM; in test [2], 1700 nM.
